Test results taken from patent US20070231260A1, “Transporter-targeted methods of diagnosis and treatment” (priority 2005, published 2007).

System: cells that overexpress MCT1
Assay: Cytotoxicity (GI50) of bromopyruvate in cells not expressing MCT1 (-TET) and induced to express MCT1 (+TET)
Type: cell-based
Conditions: GI50, +TET vs -TET cells; FIG. 2

O=C(O)C(=O)CBr [bromopyruvate, Bromopyruvate]
fold higher toxicity to cells that overexpress MCT1: more than 20 times
